Results from US7063946B2, “Methods, reagents, kits and apparatus for protein function analysis” (Meso Scale Technologies, LLC., priority 2001, dated 2006).

How the values were obtained:
Test in all cases: Kinase inhibitor profiling, pEY phosphorylation
Type in all cases: biochemical
EphB4 = molecular target: T1, EphB4 (Mus musculus, UniProt P54761)
T1 construct: specificity data for proteins generated from a library of eighteen full-length clones; host or cells: rabbit reticulocyte lysate, TnT coupled in vitro transcription/translation (cell-free)
T1 sequence (P54761 16-987): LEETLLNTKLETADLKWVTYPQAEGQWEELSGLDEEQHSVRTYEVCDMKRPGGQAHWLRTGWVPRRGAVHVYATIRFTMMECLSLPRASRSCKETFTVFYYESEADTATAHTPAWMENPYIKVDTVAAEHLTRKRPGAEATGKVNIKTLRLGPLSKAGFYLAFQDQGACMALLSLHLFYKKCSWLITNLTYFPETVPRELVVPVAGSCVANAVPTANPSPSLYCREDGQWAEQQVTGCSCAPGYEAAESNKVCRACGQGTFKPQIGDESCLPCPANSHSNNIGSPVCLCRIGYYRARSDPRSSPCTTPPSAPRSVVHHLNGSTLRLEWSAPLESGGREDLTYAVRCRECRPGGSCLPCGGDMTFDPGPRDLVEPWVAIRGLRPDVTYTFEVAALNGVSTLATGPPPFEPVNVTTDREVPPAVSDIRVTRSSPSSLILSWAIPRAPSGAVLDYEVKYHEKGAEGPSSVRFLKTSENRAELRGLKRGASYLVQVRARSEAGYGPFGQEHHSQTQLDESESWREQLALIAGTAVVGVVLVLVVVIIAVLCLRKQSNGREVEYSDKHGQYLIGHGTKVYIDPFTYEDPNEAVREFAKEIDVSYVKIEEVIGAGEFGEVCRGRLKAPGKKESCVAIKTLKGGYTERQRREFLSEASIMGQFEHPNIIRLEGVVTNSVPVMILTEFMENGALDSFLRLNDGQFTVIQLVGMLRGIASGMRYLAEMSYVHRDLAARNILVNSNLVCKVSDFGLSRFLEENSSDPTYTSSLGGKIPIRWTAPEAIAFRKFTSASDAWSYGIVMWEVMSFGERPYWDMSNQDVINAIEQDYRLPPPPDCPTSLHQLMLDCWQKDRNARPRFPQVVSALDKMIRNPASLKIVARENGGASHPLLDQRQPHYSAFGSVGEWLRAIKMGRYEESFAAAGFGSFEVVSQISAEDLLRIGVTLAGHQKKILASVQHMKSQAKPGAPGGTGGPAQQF
Procedure: (§1) Proteins were produced in an in vitro transcription and translation reaction. […] The unbound components of the reaction containing endogenous kinases were removed by three washes with TT-buffer (25 mM Tris-HCl buffer pH 7.4 and 0.004% Triton), two five minutes washings with high-salt wash buffer (25 mM Tris-HCl buffer pH 7.4, 0.004% Triton, 1M NaCl and 5 mM DTT) and 3 more washes with TT-buffer. To these immobilized and purified proteins a tyrosine kinase substrate, 5 nM pEY (poly Glu-Tyr, Sigma, MO), was added in a 50 μl reaction solution containing 5 mM MgCl2, 5 mM MnCl2, 100 μM ATP, 25 mM Tris-HCl buffer pH 7.4, 0.05 mM Na3VO4, 0.004% TritonX-100, 2 mM DTT and EDTA-free protease inhibitor (Roche Molecular Biochemicals). This mixture was incubated with shaking at room temperature overnight to allow phosphorylation of the pEY substrate by the immobilized kinases. Following this incubation, 45 μl of this mixture was transferred to a streptavidin or avidin-coated NPT IPR plate coated with biotinylated anti-phosphotyrosine antibody (PY20, Zymed labs, CA) followed by incubation for 30 minutes at room temperature to allow the binding of the phosphorylated pEY substrate to the PY20 coated NPT plate. Following this binding step, 50 ng Sulfo-TAG labeled anti-phosphotyrosine in buffer containing 25 mM Tris-HCl buffer pH 7.4, 5 mM MgCl2, 0.05 mM Na3VO4, 0.004% TritonX-100, 2 mM DTT and 0.05% IgG was added followed by incubation at room temperature for 30 mm. The unbound reagents were removed by one time washing with water, and the TAG label was detected in presence of 150 μl IPR assay buffer (0.4 mM Gly-Gly buffer, pH 7.8, 1 mM EDTA, 0.1 M TPA). The ECL signals were measured using an imaging plate reader.
(§2) Proteins were produced using 100 ng of plasmid DNA Mock (Luciferase, Promega) or tyrosine kinases (Fert2 IMAGE ID # 4485050, FGFR1 IMAGE ID # 4037899, Fgfr2 IMAGE ID # 2654352, Src IMAGE ID # 3156400, BMX IMAGE ID # 3919253, LCK IMAGE ID # 4191610, Epha7 IMAGE ID # 3991628, Ephb4 IMAGE ID # 4013934, Tek IMAGE ID # 3482498, HCK IMAGE ID # 4778819, BTK IMAGE ID # 4478463, CSK IMAGE ID # 4398416, SYK IMAGE ID # 3870426, FGR IMAGE ID # 4419973, PTK2B IMAGE ID # 4339456, FRK(IMAGE ID # 4515877, Kit IMAGE ID # 2644960, Fgfr-4 IMAGE ID # 4239139, NTRK3 IMAGE ID # 4181574, Kdr IMAGE ID # 4238984, Incyte Genomics, CA) and immobilized on SA or avidin coated NPT-IPR plates as described in previous examples. The unbound components of the translation reaction (including any endogenous kinases) were removed by 3 washes with TT-buffer (25 mM Tris-HCl buffer pH 7.4 and 0.004% Triton), two five minutes washes with high-salt wash buffer (25 mM Tris-HCl buffer pH 7.4, 0.004% Triton, 1M NaCl and 5 mM DTT) and 3 washes with TT-buffer. […] The mixture was incubated at room temperature for 10 mm before starting the kinase reaction by adding 25 μl of 200 μM ATP in buffer A. This mixture was incubated with intermittent shaking at room temperature for 2 hours to overnight to allow (a) phosphorylation of the pEY substrate and (b) autophosphorylation of the immobilized kinases. Autophosphorylation and phosphorylation of the pEY was measured as described in Examples 7 and 8.
(§3) The ECL signal in control wells produced by tyrosine kinases was compared to the wells containing inhibitor compounds. The signal produced from Mock was negligible.

FGFR1 = molecular target: T2, FGFR1 (Homo sapiens, UniProt P11362)
T2 construct: specificity data for proteins generated from a library of eighteen full-length clones; host or cells: rabbit reticulocyte lysate, TnT coupled transcription/translation
T2 sequence (P11362 22-822): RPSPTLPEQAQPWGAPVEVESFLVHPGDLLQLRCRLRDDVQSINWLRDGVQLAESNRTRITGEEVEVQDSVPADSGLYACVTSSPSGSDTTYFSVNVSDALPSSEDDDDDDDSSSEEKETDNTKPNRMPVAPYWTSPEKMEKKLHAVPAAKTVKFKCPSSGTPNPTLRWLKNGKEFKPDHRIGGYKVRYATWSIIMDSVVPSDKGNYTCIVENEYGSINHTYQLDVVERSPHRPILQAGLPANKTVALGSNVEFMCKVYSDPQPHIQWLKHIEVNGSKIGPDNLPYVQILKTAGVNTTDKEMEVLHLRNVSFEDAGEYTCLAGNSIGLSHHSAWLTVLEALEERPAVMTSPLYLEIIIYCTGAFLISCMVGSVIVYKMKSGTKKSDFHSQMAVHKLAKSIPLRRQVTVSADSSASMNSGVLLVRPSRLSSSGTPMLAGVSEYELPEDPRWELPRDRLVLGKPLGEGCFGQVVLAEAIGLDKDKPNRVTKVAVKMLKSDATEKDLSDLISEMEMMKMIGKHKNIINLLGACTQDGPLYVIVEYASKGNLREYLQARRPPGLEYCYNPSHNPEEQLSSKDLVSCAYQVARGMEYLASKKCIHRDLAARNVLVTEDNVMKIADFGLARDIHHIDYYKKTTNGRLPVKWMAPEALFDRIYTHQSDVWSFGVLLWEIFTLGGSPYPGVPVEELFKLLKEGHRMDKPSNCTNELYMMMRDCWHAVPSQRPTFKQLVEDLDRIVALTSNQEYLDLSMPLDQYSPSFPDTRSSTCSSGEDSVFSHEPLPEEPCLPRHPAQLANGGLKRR
Procedure: as §1, §2, §3

FGFR2 = molecular target: T3, FGFR2 (Mus musculus, UniProt P21803)
T3 construct: specificity data for proteins generated from a library of eighteen full-length clones; host or cells: rabbit reticulocyte lysate, TnT coupled in vitro transcription/translation (cell-free)
T3 sequence (P21803 22-821): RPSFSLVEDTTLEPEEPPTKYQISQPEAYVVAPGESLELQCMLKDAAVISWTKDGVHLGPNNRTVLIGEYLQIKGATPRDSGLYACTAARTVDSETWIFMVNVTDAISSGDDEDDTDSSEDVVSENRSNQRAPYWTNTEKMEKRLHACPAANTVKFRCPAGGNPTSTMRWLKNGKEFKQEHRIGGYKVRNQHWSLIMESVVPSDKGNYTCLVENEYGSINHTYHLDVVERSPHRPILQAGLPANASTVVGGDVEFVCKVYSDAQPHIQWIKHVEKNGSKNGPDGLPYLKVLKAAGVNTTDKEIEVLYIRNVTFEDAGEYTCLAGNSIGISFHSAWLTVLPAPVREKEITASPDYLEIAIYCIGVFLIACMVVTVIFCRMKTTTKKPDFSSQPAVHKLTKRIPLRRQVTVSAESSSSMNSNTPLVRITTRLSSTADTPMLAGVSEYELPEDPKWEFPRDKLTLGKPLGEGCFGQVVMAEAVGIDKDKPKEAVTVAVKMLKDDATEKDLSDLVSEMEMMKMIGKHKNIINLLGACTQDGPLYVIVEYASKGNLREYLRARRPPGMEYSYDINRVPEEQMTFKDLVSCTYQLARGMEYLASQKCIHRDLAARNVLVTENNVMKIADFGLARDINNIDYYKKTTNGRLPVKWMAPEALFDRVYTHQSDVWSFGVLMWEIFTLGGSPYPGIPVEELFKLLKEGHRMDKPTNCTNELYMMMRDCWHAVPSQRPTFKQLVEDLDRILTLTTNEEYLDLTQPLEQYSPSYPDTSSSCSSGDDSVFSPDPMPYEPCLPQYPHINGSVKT
Procedure: as §1, §2, §3

Kit = molecular target: T4, Kit (Mus musculus, UniProt P05532)
T4 construct: specificity data for proteins generated from a library of eighteen full-length clones; biotin on random lysines (biotin-Lys-tRNA); host or cells: rabbit reticulocyte lysate, coupled transcription/translation (TnT, Promega)
T4 sequence (P05532 25-979): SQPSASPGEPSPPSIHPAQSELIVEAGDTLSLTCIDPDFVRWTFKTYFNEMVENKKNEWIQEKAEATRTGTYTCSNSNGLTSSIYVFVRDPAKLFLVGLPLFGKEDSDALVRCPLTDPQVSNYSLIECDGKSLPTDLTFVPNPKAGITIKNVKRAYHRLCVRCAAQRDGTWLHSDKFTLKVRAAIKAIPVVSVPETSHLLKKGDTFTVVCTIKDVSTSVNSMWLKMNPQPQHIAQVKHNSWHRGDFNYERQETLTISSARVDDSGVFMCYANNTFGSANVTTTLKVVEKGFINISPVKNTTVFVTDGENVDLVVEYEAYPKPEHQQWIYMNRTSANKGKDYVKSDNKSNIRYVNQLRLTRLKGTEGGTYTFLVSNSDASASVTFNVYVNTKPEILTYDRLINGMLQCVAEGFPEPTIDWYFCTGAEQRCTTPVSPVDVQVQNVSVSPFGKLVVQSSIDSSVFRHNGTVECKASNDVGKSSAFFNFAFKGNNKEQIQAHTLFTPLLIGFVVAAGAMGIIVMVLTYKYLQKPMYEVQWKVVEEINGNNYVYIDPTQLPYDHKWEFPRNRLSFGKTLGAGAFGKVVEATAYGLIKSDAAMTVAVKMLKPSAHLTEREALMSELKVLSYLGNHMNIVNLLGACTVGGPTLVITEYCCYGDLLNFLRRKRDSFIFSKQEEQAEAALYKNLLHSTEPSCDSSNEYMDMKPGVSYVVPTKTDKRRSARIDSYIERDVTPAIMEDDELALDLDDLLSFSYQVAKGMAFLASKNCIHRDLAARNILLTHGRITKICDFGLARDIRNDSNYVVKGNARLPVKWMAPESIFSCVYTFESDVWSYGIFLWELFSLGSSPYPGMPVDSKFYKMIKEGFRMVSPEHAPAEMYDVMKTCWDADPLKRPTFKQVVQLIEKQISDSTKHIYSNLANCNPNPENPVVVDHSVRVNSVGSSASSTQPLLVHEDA
Procedure: as §1, §2, §3

Fgfr4 = molecular target: T5, Fgfr4 (Mus musculus, UniProt Q03142)
T5 construct: specificity data for proteins generated from a library of eighteen full-length clones; biotin on random lysines (biotin-Lys-tRNA); host or cells: rabbit reticulocyte lysate, coupled transcription/translation (TnT, Promega)
T5 sequence (Q03142 17-799): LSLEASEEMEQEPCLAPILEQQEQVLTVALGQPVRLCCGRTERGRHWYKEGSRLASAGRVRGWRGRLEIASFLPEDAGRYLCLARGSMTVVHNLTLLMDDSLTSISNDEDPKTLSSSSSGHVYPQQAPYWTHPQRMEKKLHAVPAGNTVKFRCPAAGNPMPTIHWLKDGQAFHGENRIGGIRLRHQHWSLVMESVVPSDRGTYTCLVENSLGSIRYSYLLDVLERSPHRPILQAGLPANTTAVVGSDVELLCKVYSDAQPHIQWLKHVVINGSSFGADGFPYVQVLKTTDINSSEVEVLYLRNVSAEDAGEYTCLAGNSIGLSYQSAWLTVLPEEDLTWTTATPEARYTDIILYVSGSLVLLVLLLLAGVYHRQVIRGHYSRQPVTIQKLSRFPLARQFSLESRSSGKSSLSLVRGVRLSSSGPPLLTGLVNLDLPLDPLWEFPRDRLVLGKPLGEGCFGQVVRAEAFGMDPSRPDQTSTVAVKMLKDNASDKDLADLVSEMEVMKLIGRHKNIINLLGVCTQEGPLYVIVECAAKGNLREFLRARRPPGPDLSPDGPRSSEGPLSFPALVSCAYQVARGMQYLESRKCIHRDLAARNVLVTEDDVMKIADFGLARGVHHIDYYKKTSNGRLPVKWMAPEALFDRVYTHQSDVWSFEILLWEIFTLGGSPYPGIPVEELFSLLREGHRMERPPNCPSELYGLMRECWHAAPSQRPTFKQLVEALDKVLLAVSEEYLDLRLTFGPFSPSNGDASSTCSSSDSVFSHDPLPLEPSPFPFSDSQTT
Procedure: as §1, §2, §3

Molecule	Inhibition specificity towards pEY phosphorylation at 10X IC50, EphB4 (EphB4)	Inhibition specificity towards pEY phosphorylation at 10X IC50, FGFR1 (FGFR1)	Inhibition specificity towards pEY phosphorylation at 10X IC50, FGFR2 (FGFR2)	Inhibition specificity towards pEY phosphorylation at 10X IC50, Kit (Kit)	Inhibition specificity towards pEY phosphorylation at 10X IC50, Fgfr4 (Fgfr4)
COC(=O)c1ccc(NCc2cc(O)ccc2O)cc1 [AG-957]	L (low inhibition (“L”=between 50–75% of the activity remaining))	L (low inhibition (“L”=between 50–75% of the activity remaining))	L (low inhibition (“L”=between 50–75% of the activity remaining))	L (low inhibition (“L”=between 50–75% of the activity remaining))	–
CC(C)(C)c1cc(C=C(C#N)C#N)cc(Br)c1O [AG-1024]	L (low inhibition (“L”=between 50–75% of the activity remaining))	L (low inhibition (“L”=between 50–75% of the activity remaining))	L (low inhibition (“L”=between 50–75% of the activity remaining))	L (low inhibition (“L”=between 50–75% of the activity remaining))	M (medium inhibition (“M”=between 25 to 50% of the activity remaining))
Cc1cc2ncc(-c3ccc(O)c(O)c3)nc2cc1C [AG-1433]	H (high inhibition (“H”=less than 25% of the activity remaining))	H (high inhibition (“H”=less than 25% of the activity remaining))	H (high inhibition (“H”=less than 25% of the activity remaining))	H (high inhibition (“H”=less than 25% of the activity remaining))	H (high inhibition (“H”=less than 25% of the activity remaining))
COc1c(C=O)c(O)cc2c1C(=O)c1ccccc1C2=O [Damnacanthal]	H (high inhibition (“H”=less than 25% of the activity remaining))	H (high inhibition (“H”=less than 25% of the activity remaining))	H (high inhibition (“H”=less than 25% of the activity remaining))	H (high inhibition (“H”=less than 25% of the activity remaining))	H (high inhibition (“H”=less than 25% of the activity remaining))
Cc1ccc(-c2nn(C(C)(C)C)c3ncnc(N)c23)cc1 [PP1]	L (low inhibition (“L”=between 50–75% of the activity remaining))	L (low inhibition (“L”=between 50–75% of the activity remaining))	–	M (medium inhibition (“M”=between 25 to 50% of the activity remaining))	M (medium inhibition (“M”=between 25 to 50% of the activity remaining))
COc1cc2ncnc(Nc3ccc(Cl)cc3F)c2cc1OC [VEGFR inhibitor]	M (medium inhibition (“M”=between 25 to 50% of the activity remaining))	–	L (low inhibition (“L”=between 50–75% of the activity remaining))	L (low inhibition (“L”=between 50–75% of the activity remaining))	L (low inhibition (“L”=between 50–75% of the activity remaining))
COc1cc2ncnc(Nc3ccc(O)cc3)c2cc1OC [WHI-P131]	M (medium inhibition (“M”=between 25 to 50% of the activity remaining))	L (low inhibition (“L”=between 50–75% of the activity remaining))	L (low inhibition (“L”=between 50–75% of the activity remaining))	H (high inhibition (“H”=less than 25% of the activity remaining))	L (low inhibition (“L”=between 50–75% of the activity remaining))
Erbstatin analog	L (low inhibition (“L”=between 50–75% of the activity remaining))	–	–	L (low inhibition (“L”=between 50–75% of the activity remaining))	–
